# Patent EP4721737A1, “USE OF PHARMACEUTICAL COMPOSITION COMPRISING COMPOUND HAVING BIS(AZANYLYLIDENE) SULFONYL STRUCTURE FOR TREATING ANEMIA-RELATED DISEASES” (Scinnohub Pharmaceutical Co., Ltd., priority 2023, dated 2024)
# Read-outs that look alike come from different tables or passages of the source.
# Key:
# [1] = target: T1, PKR in ex vivo red blood cells of patients with thalassemia (Homo sapiens, UniProt P30613); test: ex vivo pyruvate kinase (PKR) activity experiment, red blood cells of patients with thalassemia; assay type: cell-based
# T1 construct: endogenous in cells; host or cells: human red blood cells of thalassemia patients (Patients A-D)
# T1 sequence (P30613 whole entry): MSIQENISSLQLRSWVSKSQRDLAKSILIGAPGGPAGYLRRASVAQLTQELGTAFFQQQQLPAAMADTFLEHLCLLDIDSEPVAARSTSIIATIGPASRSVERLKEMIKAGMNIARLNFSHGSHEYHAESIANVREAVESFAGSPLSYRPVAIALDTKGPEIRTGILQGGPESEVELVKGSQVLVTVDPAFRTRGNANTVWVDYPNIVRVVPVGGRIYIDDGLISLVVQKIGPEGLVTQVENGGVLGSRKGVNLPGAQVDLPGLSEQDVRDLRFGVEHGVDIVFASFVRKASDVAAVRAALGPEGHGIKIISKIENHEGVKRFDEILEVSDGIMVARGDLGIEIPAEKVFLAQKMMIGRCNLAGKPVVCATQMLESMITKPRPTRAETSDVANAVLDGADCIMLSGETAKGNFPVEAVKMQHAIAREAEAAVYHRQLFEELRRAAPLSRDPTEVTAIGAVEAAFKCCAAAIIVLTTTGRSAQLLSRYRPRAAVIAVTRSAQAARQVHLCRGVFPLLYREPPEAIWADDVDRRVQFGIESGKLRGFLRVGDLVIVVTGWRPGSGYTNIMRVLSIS
# Protocol: To test the effects of the compound of the present disclosure on PKR activation in ex vivo red blood cells from healthy individuals and patients with thalassemia.
# • i. 5 g of glucose, 85 mg of adenine, and 2.625 g of mannitol were weighed and added into a 50 mL centrifuge tube. 40 mL of PBS was added to dissolve (sonicate for 30 minutes until completely dissolved). The solution was filtered through a 0.22 µm filter, then added to 460 mL of sterile PBS and mixed thoroughly.
# • i. Fresh human peripheral blood was collected. K2EDTA was used as the anticoagulant. 1 part anticoagulant with 9 parts blood was mixed, then centrifuged at 500 g for 10 minutes at room temperature to remove the plasma. • ii. Packed red blood cells: 1.5 volumes of PBS were added, then centrifuged at 2000 ×g for 5 minutes at room temperature. After centrifugation, the supernatant was removed. This step was repeated twice. • iii. Diluted red blood cells: 1.5 volumes of PBS were added, then resuspended and mixed thoroughly. • iv. The diluted red blood cells were slowly added to 0.5 volume of 70% isotonic solution (e.g., 7.5 mL of diluted red blood cells + 3 mL of 70% isotonic solution Percoll) and centrifuged at 4000 ×g for 20 minutes at 4°C. • v. The supernatant was removed. The red blood cells at the bottom were washed once with 4-5 mL of PBS to elute the Percoll gel, and then centrifuged at 2000 ×g for 5 minutes at room temperature. • vi. The supernatant was removed. The red blood cells were counted and then diluted in AGAM medium containing 10% FBS to a density of 2 × 10^8 cells/mL for storage at 4°C.
# i. The red blood cells were seeded into a 96-well plate at a uniform density of 1 × 10^7 cells/mL, with 100 µL per well. The test compounds (dissolved in DMSO) were diluted and added to the cell culture medium, resulting in final compound concentrations of 3000, 1000, 300, 100, 10, 3, and 1 nM (with 1% DMSO). The cells and compounds were co-cultivated for 3 hours in a 37°C incubator with 5% CO2. Subsequently, the plate was centrifuged at 2000 g for 20 minutes, and the supernatant was discarded. 100 µL of red blood cell lysis buffer was added to the cell pellet, vortexed for 20 minutes, and centrifuged at 4000 g for 5 minutes. The supernatant was collected for analysis. ii. The reaction system was prepared according to the kit instructions (shown as the table below), 10 µL of the reaction system was added to each well of a 384-well plate, and 10 µL of red blood cell lysis buffer was took and mixed well (20 µL reaction system).
# iii. A black, transparent-bottomed 384-well plate was placed in a microplate reader to measure fluorescence at 540/590 nm. The fluorescence was read every 2 minutes for 1 hour.
# i. The Slope value was calculated over the assay time. Compound activation percentage was calculated using the 1% DMSO well as the control well. Activation percentage = (Slope of compound well / Slope of control well) × 100% ii. Dose-response curve was fit using the logarithmic compound concentration on the X-axis and the percent activation percentage on the Y-axis, the log(agonist) vs. response - variable slope function in GraphPad Prism 5 was used to determine the AC50 value for each compound on PKR activity. Y = min + (max−min)/(1+10^(∧)((LogAC50−X)×Hillslope)). [formula] The PKR agonist effects of the compound of the present disclosure on ex vivo red blood cells from healthy individuals and thalassemia patients were determined using the above assay. The AC50 values measured on ex vivo red blood cells from healthy individuals are as follows (A represents 0-100 nM, B represents 101-300 nM, and C represents 300-1000 nM): […]
# [2] = tested on: wild-type mice; test: in vivo efficacy study in wild-type mice (HGB, ATP, 2,3-DPG in whole blood); conditions: C57BL/6J, whole blood 2-3 hours after last administration; for HGB: vehicle control 14.9; for ATP: vehicle control 452.0; for 2,3-DPG: vehicle control 1727.8
# Protocol: The effects of the compound on wild-type mice were evaluated by detecting the concentrations of HGB, ATP, and 2,3-DPG in the whole blood of mice.
# • i. On the day of administration, the compound was weighed, then the vehicle was added to prepare the administration solution: vehicle: 5% DMSO + 10% Solutol + 85% Saline
# i. Wild-type mice were randomly divided into groups based on body weight, with 8 mice per group.
# • i. Whole blood sample was collected 2-3 hours after the last administration of the test animal for HGB assay.
# • i. An LC-MS/MS method was established to determine the ATP and 2,3-DPG contents in whole blood sample 2-3 hours after the last administration of the test animal.
# [3] = pharmacokinetic properties test in rats; assay type: in vivo; conditions: SD rat, single, plasma; for MRT last: read-out: MRT0-t; for Vd: read-out: Vss
# Protocol: (§1) The pharmacokinetic properties of the compounds of the present disclosure in different animal species were investigated by measuring plasma drug concentrations following intravenous and oral gavage in mouse, rat, and dog.
# (§2) i. The compounds were weighed, then the solvent (5% DMSO + 10% Solutol + 85% saline) was added to prepare the administration solution. ii. On the day before the experiment, animals in the oral administration group were fasted overnight (10-14 hours) and fed 4 hours after administration. iii. At each time point after administration, approximately 30 µL of venous blood was collected from an appropriate location in each group of animals and placed in a sodium heparin tube. Blood samples were placed on ice and centrifuged within 1 hour to separate plasma (centrifugation conditions: 6800 g, 6 min, 2-8°C). Plasma samples were stored at -80°C until analysis.
# (§3) b) An LC-MS/MS analytical method was developed for measuring compound concentrations in mouse, rat, and dog plasma. This method was used to determine compound concentrations in biological samples obtained in this assay.
# (§4) Pharmacokinetic parameters were calculated using Phoenix WinNonlin 7.0 using plasma drug concentration data at different time points.
# [4] = pharmacokinetic properties test in dogs; assay type: in vivo; conditions: dog, Beagle, single, plasma; for MRT last: read-out: MRT0-t; for Vd: read-out: Vss
# Protocol: as §1, §2, §3, §4
# [5] = thalassemia Patient A, read-out: AC50 (nM) Patient A
# [6] = thalassemia Patient B, read-out: AC50 (nM) Patient B
# [7] = thalassemia Patient C, read-out: AC50 (nM) Patient C
# [8] = thalassemia Patient D, read-out: AC50 (nM) Patient D
# [9] = 2.5 mg/kg oral gavage twice a day 14 days
# [10] = 7.5 mg/kg oral gavage twice a day 14 days
# [11] = 25 mg/kg oral gavage twice a day 14 days
# [12] = 15 mg/kg oral gavage twice a day 14 days
# [13] = 50 mg/kg oral gavage twice a day 14 days
# [14] = 75 mg/kg oral gavage twice a day 14 days
"AC50 [1, 5] [nM]","AC50 [1, 6] [nM]","AC50 [1, 7] [nM]","AC50 [1, 8] [nM]",AUC(0-t) ([3]; 1 mg/kg intravenous injection) [µg·h/mL],Cmax ([3]; 1 mg/kg intravenous injection) [µg/mL],Tmax ([3]; 1 mg/kg intravenous injection) [h],clearance ([3]; 1 mg/kg intravenous injection) [L/h/kg],half-life ([3]; 1 mg/kg intravenous injection) [h],MRT last ([3]; 1 mg/kg intravenous injection) [h],Vd ([3]; 1 mg/kg intravenous injection) [L/kg],"AUC(0-t) ([3]; 10 mg/kg oral gavage, fasted) [µg·h/mL]","Cmax ([3]; 10 mg/kg oral gavage, fasted) [µg/mL]","Tmax ([3]; 10 mg/kg oral gavage, fasted) [h]","half-life ([3]; 10 mg/kg oral gavage, fasted) [h]","MRT last ([3]; 10 mg/kg oral gavage, fasted) [h]",AUC(0-t) ([4]; 2 mg/kg intravenous injection) [µg·h/mL],Cmax ([4]; 2 mg/kg intravenous injection) [µg/mL],Tmax ([4]; 2 mg/kg intravenous injection) [h],clearance ([4]; 2 mg/kg intravenous injection) [L/h/kg],Structure (SMILES),further results
251,84.4,140,145,0.394,0.689,0.08,2.53,0.64,0.58,1.56,1.73,0.993,0.25,1.53,2.24,8.57,1.77,0.14,0.223,"N#Cc1ccc(S(=O)(=O)N2CC(=C3CN(C(=O)[C@H](CO)c4ccccc4)C3)C2)cc1 [Compound 65, (S)-4-(1'-(3-hydroxy-2-phenylpropionyl)-1',4'-dihydro-2H,2'H-[3,3'-diazetidinylidene]-1(4H)-ylsulfonyl)benzonitrile]","HGB [2, 9]: 15.1 g/dL; ATP [2, 9]: 481.5 µg/mL; 2,3-DPG [2, 9]: 1417.4 µg/mL; HGB [2, 10]: 14.9 g/dL; ATP [2, 10]: 486.5 µg/mL; 2,3-DPG [2, 10]: 1417.4 µg/mL; HGB [2, 11]: 14.9 g/dL; ATP [2, 11]: 475.9 µg/mL; 2,3-DPG [2, 11]: 1363.0 µg/mL; half-life ([4]; 2 mg/kg intravenous injection): 5.81 h; MRT last ([4]; 2 mg/kg intravenous injection): 5.53 h; Vd ([4]; 2 mg/kg intravenous injection): 1.55 L/kg; AUC(0-t) ([4]; 5 mg/kg oral gavage, fasted): 19.5 µg·h/mL; Cmax ([4]; 5 mg/kg oral gavage, fasted): 2.48 µg/mL; Tmax ([4]; 5 mg/kg oral gavage, fasted): 1.33 h; half-life ([4]; 5 mg/kg oral gavage, fasted): 4.47 h; MRT last ([4]; 5 mg/kg oral gavage, fasted): 5.28 h"
21.8,20.9,24.8,11.7,0.537,0.731,0.08,1.79,4.91,2.12,5.11,3.3,1.74,0.25,3.43,3.2,3.11,1.59,0.08,0.67,"O=C([C@H](CO)c1ccc(F)cc1F)N1CC(=C2CN(S(=O)(=O)c3ccccn3)C2)C1 [Compound 83, (S)-2-(2,4-difluorophenyl)-3-hydroxy-1-(1'-(pyridin-2-ylsulfonyl)-1',4'-dihydro-2H,2'H-[3,3'-diazetidinylidene]-1(4H)-yl)propan-1-one]","HGB [2, 12]: 15.3 g/dL; ATP [2, 12]: 476.9 µg/mL; 2,3-DPG [2, 12]: 1454.1 µg/mL; HGB [2, 13]: 15.4 g/dL; ATP [2, 13]: 472.1 µg/mL; 2,3-DPG [2, 13]: 1444.5 µg/mL; HGB [2, 14]: 14.6 g/dL; ATP [2, 14]: 474.1 µg/mL; 2,3-DPG [2, 14]: 1441.8 µg/mL; half-life ([4]; 2 mg/kg intravenous injection): 3.72 h; MRT last ([4]; 2 mg/kg intravenous injection): 2.79 h; Vd ([4]; 2 mg/kg intravenous injection): 1.93 L/kg; AUC(0-t) ([4]; 5 mg/kg oral gavage, fasted): 12.2 µg·h/mL; Cmax ([4]; 5 mg/kg oral gavage, fasted): 3.31 µg/mL; Tmax ([4]; 5 mg/kg oral gavage, fasted): 0.67 h; half-life ([4]; 5 mg/kg oral gavage, fasted): 5.21 h; MRT last ([4]; 5 mg/kg oral gavage, fasted): 4.51 h"
